What was measured:
[1] = Long-term stability testing, inspection items; format: physicochemical; conditions: for Appearance / Content (%) / HPLC identification / Moisture (%) / Particle size d (0.5) / Particle size d (0.9) / Related substance (%) Maximum unknown single impurity / Related substance (%) Total impurities: 30° C./65% humidity
Experimental: The samples were prepared according to the method of Example 1, and then were placed under the long-term stability conditions (temperature: 30° C.±2° C.; humidity: 65%±5%) for six months.

[2] = Hygroscopicity: weight gain due to moisture absorption; format: physicochemical
Experimental: The samples were prepared according to the method of Example 1, and the following tests were carried out:
(1) placing the sample at 25° C. and 75% humidity;
(2) placing the sample at 25° C. and 92.5% humidity.
The aforementioned two samples were taken and tested at different time points to investigate weight gain of the samples due to moisture absorption.

CNCc1cc(-c2ccccc2F)n(S(=O)(=O)c2cccnc2)c1.O=C(O)/C=C/C(=O)O [Example 1, 1-[5-(2-fluorophenyl)-1-(pyridin-3-ylsulfonyl)-1H-pyrrol-3-yl]-N-methylmethanamine fumarate]
Appearance ([1]; 0 months): White powder
Content (%) ([1]; 0 months): 99.6%
HPLC identification ([1]; 0 months): Consistent
Moisture (%) ([1]; 0 months): 0.04%
Particle size d (0.5) ([1]; 0 months): d (0.5) ≤15 μm
Particle size d (0.9) ([1]; 0 months): d (0.9) ≤30 μm
Related substance (%) Maximum unknown single impurity ([1]; 0 months): 0.03%
Related substance (%) Total impurities ([1]; 0 months): 0.12%
Appearance ([1]; 3 months): White powder
Content (%) ([1]; 3 months): 100.0%
HPLC identification ([1]; 3 months): Consistent
Moisture (%) ([1]; 3 months): 0.08%
Particle size d (0.5) ([1]; 3 months): d (0.5) ≤15 μm
Particle size d (0.9) ([1]; 3 months): d (0.9) ≤30 μm
Related substance (%) Maximum unknown single impurity ([1]; 3 months): 0.04%
Related substance (%) Total impurities ([1]; 3 months): 0.13%
Appearance ([1]; 6 months): White powder
Content (%) ([1]; 6 months): 99.7%
HPLC identification ([1]; 6 months): Consistent
Moisture (%) ([1]; 6 months): 0.08%
Particle size d (0.5) ([1]; 6 months): d (0.5) ≤15 μm
Particle size d (0.9) ([1]; 6 months): d (0.9) ≤30 μm
Related substance (%) Maximum unknown single impurity ([1]; 6 months): 0.03%
Related substance (%) Total impurities ([1]; 6 months): 0.13%
Stability ([1]; long-term storage conditions, 30° C.±2° C., humidity 65%±5%, six months, fumarate): good stability
weight gain due to moisture absorption (%) ([2]; 25° C./RH 75%, 5 days): 0.01%
weight gain due to moisture absorption (%) ([2]; 25° C./RH 75%, 10 days): 0.13%
weight gain due to moisture absorption (%) ([2]; 25° C./RH 75%, 30 days): 0.12%
weight gain due to moisture absorption (%) ([2]; 25° C./RH 92.5%, 5 days): 0.17%
weight gain due to moisture absorption (%) ([2]; 25° C./RH 92.5%, 10 days): 0.12%
weight gain due to moisture absorption (%) ([2]; 25° C./RH 92.5%, 30 days): 0.19%
